Experimental data published in BigSolDB 2.1.

C=C1CC[C@H](O)C/C1=C/C=C1\CCC[C@]2(C)[C@@H]([C@H](C)CCCC(C)C)CC[C@@H]12
solubility (mole fraction)
Conditions	in acetone	in acetonitrile	in ethanol	in ethyl acetate	in methanol	in n-propanol
248.2 K	0.00611	7.61e-05	0.0532	0.0219	0.00204	0.0647
253.2 K	0.00805	9.25e-05	0.0646	0.0287	0.00249	0.0873
258.2 K	0.0106	0.000133	0.0796	0.0366	0.00337	0.111
263.2 K	0.0143	0.00016	0.0965	0.0478	0.0046	0.136
268.2 K	0.0192	0.000252	0.116	0.0639	0.00625	0.163
273.2 K	0.028	0.000311	0.14	0.0883	0.00993	0.193
